In patent publication US6737383B1, “Herbicidal oxadiazolidines” (priority 1999, dated 2004):

Legend:
giant foxtail = experiment: Test B pre/postemergence giant foxtail; assay type: in vivo, Setaria faberii
Method in brief: (§1)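 Response is a visual 0-to-10 score relative to untreated plants, where 0 means no effect and 10 means complete control, taken twelve to sixteen days after application. Treatments went onto soil at planting and onto foliage of 1- to 4-leaf plants, using a surfactant-containing non-phytotoxic solvent.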

cocklebur = experiment: Test B pre/postemergence cocklebur; assay type: in vivo, Xanthium strumarium
Method in brief: as §1

wheat = experiment: Test B pre/postemergence wheat; assay type: in vivo, Triticum aestivum
Method in brief: as §1

sugar beet = experiment: Test B pre/postemergence sugar beet; assay type: in vivo, Beta vulgaris
Method in brief: as §1

bedstraw = experiment: Test B pre/postemergence bedstraw; assay type: in vivo, Galium aparine
Method in brief: as §1

velvetleaf = experiment: Test B pre/postemergence velvetleaf; assay type: in vivo, Abutilon theophrasti
Method in brief: as §1

crabgrass = experiment: Test B pre/postemergence crabgrass; assay type: in vivo, Digitaria sanguinalis
Method in brief: as §1

rape = experiment: Test B pre/postemergence rape; assay type: in vivo, Brassica napus
Method in brief: as §1

soybean = experiment: Test B pre/postemergence soybean; assay type: in vivo, Glycine max
Method in brief: as §1

wild oat = experiment: Test B pre/postemergence wild oat; assay type: in vivo, Avena fatua
Method in brief: as §1

purple nutsedge = experiment: Test B pre/postemergence purple nutsedge; assay type: in vivo, Cyperus rotundus
Method in brief: as §1

morningglory = experiment: Test B pre/postemergence morningglory; assay type: in vivo, Ipomoea hederacea
Method in brief: as §1

surinam grass = experiment: Test B pre/postemergence surinam grass; assay type: in vivo, Brachiaria decumbens
Method in brief: as §1

blackgrass = experiment: Test B pre/postemergence blackgrass; assay type: in vivo, Alopecurus myosuroides
Method in brief: as §1

pigweed = experiment: Test B pre/postemergence pigweed; assay type: in vivo, Amaranthus retroflexus
Method in brief: as §1

corn = experiment: Test B pre/postemergence corn; assay type: in vivo, Zea mays
Method in brief: as §1

[1] = Postemergence, Rate 62 g/ha, scale 0 to 10, 0 is no effect, 10 is complete control
[2] = Postemergence, Rate 125 g/ha, scale of 0 to 10 where 0 is no effect and 10 is complete control
[3] = Preemergence, Rate 125 g/ha, scale of 0 to 10 where 0 is no effect and 10 is complete control
[4] = Preemergence, Rate 250 g/ha, scale 0 (no effect) to 10 (complete control)
[5] = Rate 62 g/ha, Preemergence, scale 0 to 10
[6] = Rate 250 g/ha, Postemergence, scale 0 to 10, 0 is no effect, 10 is complete control
[7] = Rate 500 g/ha, Postemergence, scale 0 to 10, 0 is no effect, 10 is complete control
[8] = Rate 500 g/ha, Preemergence, scale 0 to 10 (0 no effect, 10 complete control)

## Cc1nc(C(C)n2c(=O)on(C(=O)N(c3ccc(F)cc3)C(C)C)c2=O)sc1C (stereo not shown) [Compound 757]
Giant foxtail; [1]
  Plant response rating, Giant foxtail: 2
Giant foxtail; [2]
  Giant foxtail plant response rating: 2
Giant foxtail; [3]
  Plant response rating, Giant foxtail: 9
Giant foxtail; [4]
  Giant foxtail plant response rating: 9
Giant foxtail; [5]
  Giant foxtail plant response rating: 9
Giant foxtail; [6]
  Giant foxtail plant response rating: 5
Giant foxtail; [7]
  Giant foxtail plant response rating: 7
Giant foxtail; [8]
  Giant foxtail plant response rating: 9
cocklebur; [1]
  Plant response rating, Cocklebur: 0
cocklebur; [2]
  Cocklebur plant response rating: 0
cocklebur; [3]
  Plant response rating, Cocklebur: 0
cocklebur; [4]
  Cocklebur plant response rating: 0
cocklebur; [5]
  Cocklebur plant response rating: 0
cocklebur; [6]
  Cocklebur plant response rating: 2
cocklebur; [7]
  Cocklebur plant response rating: 2
cocklebur; [8]
  Cocklebur plant response rating: 0
wheat; [1]
  Plant response rating, Wheat: 0
wheat; [3]
  Plant response rating, Wheat: 0
wheat; [4]
  Wheat plant response rating: 0
wheat; [5]
  Wheat plant response rating: 0
wheat; [6]
  Wheat plant response rating: 0
wheat; [7]
  Wheat plant response rating: 0
wheat; [8]
  Wheat plant response rating: 3
Sugar beet; [1]
  Plant response rating, Sugarbeets: 0
Sugar beet; [3]
  Plant response rating, Sugarbeets: 0
Sugar beet; [4]
  Sugarbeets plant response rating: 0
Sugar beet; [5]
  Sugarbeets plant response rating: 0
Sugar beet; [6]
  Sugarbeets plant response rating: 3
Sugar beet; [7]
  Sugarbeets plant response rating: 3
Sugar beet; [8]
  Sugarbeets plant response rating: 0
bedstraw; [2]
  Bedstraw plant response rating: 0
bedstraw; [3]
  Plant response rating, Bedstraw: 0
bedstraw; [4]
  Bedstraw plant response rating: 0
bedstraw; [5]
  Bedstraw plant response rating: 0
bedstraw; [6]
  Bedstraw plant response rating: 0
bedstraw; [8]
  Bedstraw plant response rating: 0
velvetleaf; [1]
  Plant response rating, Velvetleaf: 0
velvetleaf; [3]
  Plant response rating, Velvetleaf: 0
velvetleaf; [4]
  Velvetleaf plant response rating: 0
velvetleaf; [5]
  Velvetleaf plant response rating: 0
velvetleaf; [6]
  Velvetleaf plant response rating: 3
velvetleaf; [7]
  Velvetleaf plant response rating: 4
velvetleaf; [8]
  Velvetleaf plant response rating: 0
crabgrass; [1]
  Plant response rating, Crabgrass: 3
crabgrass; [2]
  Crabgrass plant response rating: 4
crabgrass; [3]
  Plant response rating, Crabgrass: 9
crabgrass; [4]
  Crabgrass plant response rating: 9
crabgrass; [5]
  Crabgrass plant response rating: 6
crabgrass; [6]
  Crabgrass plant response rating: 6
crabgrass; [7]
  Crabgrass plant response rating: 6
crabgrass; [8]
  Crabgrass plant response rating: 9
rape; [1]
  Plant response rating, Rape: 0
rape; [2]
  Rape plant response rating: 0
rape; [3]
  Plant response rating, Rape: 0
rape; [4]
  Rape plant response rating: 0
rape; [5]
  Rape plant response rating: 0
rape; [6]
  Rape plant response rating: 0
rape; [7]
  Rape plant response rating: 0
rape; [8]
  Rape plant response rating: 0
soybean; [1]
  Plant response rating, Soybean: 3
soybean; [3]
  Plant response rating, Soybean: 0
soybean; [4]
  Soybean plant response rating: 0
soybean; [5]
  Soybean plant response rating: 0
soybean; [6]
  Soybean plant response rating: 4
soybean; [7]
  Soybean plant response rating: 4
soybean; [8]
  Soybean plant response rating: 0
Wild oat; [1]
  Plant response rating, Wild oats: 0
Wild oat; [3]
  Plant response rating, Wild oats: 0
Wild oat; [4]
  Wild oats plant response rating: 2
Wild oat; [5]
  Wild oats plant response rating: 0
Wild oat; [6]
  Wild oats plant response rating: 0
Wild oat; [7]
  Wild oats plant response rating: 0
Wild oat; [8]
  Wild oats plant response rating: 5
Purple nutsedge; [1]
  Plant response rating, Nutsedge: 0
Purple nutsedge; [2]
  Nutsedge plant response rating: 0
Purple nutsedge; [3]
  Plant response rating, Nutsedge: 0
Purple nutsedge; [4]
  Nutsedge plant response rating: 0
Purple nutsedge; [5]
  Nutsedge plant response rating: 0
Purple nutsedge; [6]
  Nutsedge plant response rating: 0
Purple nutsedge; [7]
  Nutsedge plant response rating: 0
Purple nutsedge; [8]
  Nutsedge plant response rating: 0
morningglory; [1]
  Plant response rating, Morningglory: 6
morningglory; [2]
  Morningglory plant response rating: 6
morningglory; [3]
  Plant response rating, Morningglory: 0
morningglory; [4]
  Morningglory plant response rating: 0
morningglory; [5]
  Morningglory plant response rating: 0
morningglory; [6]
  Morningglory plant response rating: 7
morningglory; [7]
  Morningglory plant response rating: 9
morningglory; [8]
  Morningglory plant response rating: 0
Surinam grass; [1]
  Plant response rating, B. signalgrass: 0
Surinam grass; [2]
  B. signalgrass plant response rating: 0
Surinam grass; Preemergence, Rate 62 g/ha, scale of 0 to 10 where 0 is no effect and 10 is complete control
  B. signalgrass plant response rating: 0
Surinam grass; [3]
  Plant response rating, B. signalgrass: 0
Surinam grass; [4]
  B. signalgrass plant response rating: 2
Surinam grass; [6]
  B. signalgrass plant response rating: 0
Surinam grass; [7]
  B. signalgrass plant response rating: 1
Surinam grass; [8]
  B. signalgrass plant response rating: 7
blackgrass; [1]
  Plant response rating, Blackgrass: 0
blackgrass; [2]
  Blackgrass plant response rating: 0
blackgrass; [3]
  Plant response rating, Blackgrass: 2
blackgrass; [4]
  Blackgrass plant response rating: 3
blackgrass; [5]
  Blackgrass plant response rating: 1
blackgrass; [6]
  Blackgrass plant response rating: 3
blackgrass; [7]
  Blackgrass plant response rating: 4
blackgrass; [8]
  Blackgrass plant response rating: 7
pigweed; [1]
  Plant response rating, Redroot pigweed: 1
pigweed; [2]
  Redroot pigweed plant response rating: 3
pigweed; [3]
  Plant response rating, Redroot pigweed: 0
pigweed; [4]
  Redroot pigweed plant response rating: 2
pigweed; [5]
  Redroot pigweed plant response rating: 0
pigweed; [6]
  Redroot pigweed plant response rating: 5
pigweed; [7]
  Redroot pigweed plant response rating: 7
pigweed; [8]
  Redroot pigweed plant response rating: 3
corn; [1]
  Plant response rating, Corn: 0
corn; [2]
  Corn plant response rating: 0
corn; [3]
  Plant response rating, Corn: 0
corn; [4]
  Corn plant response rating: 0
corn; [5]
  Corn plant response rating: 0
corn; [6]
  Corn plant response rating: 0
corn; [7]
  Corn plant response rating: 0
corn; [8]
  Corn plant response rating: 0
